{"source": "patent US20210401928A1", "about": "“ANTI-OBESITY AGENT, POLLAKIURIA IMPROVING AGENT, AND AUTONOMIC NERVOUS ACTIVITY REGULATOR” (ASAHI GROUP HOLDINGS, LTD., priority 2018, published 2021)", "system": "rat spontaneous urination", "experiment": "Rat spontaneous urination test (metabolism cage, 7 days ingestion from drinking)", "format": "in vivo", "conditions": "aqueous 0.1 mg/mL LNDP solution from drinking for 7 days", "description": "It was confirmed from Test Example 2 that LNDP promotes the efferent hypogastric nerve activity, and it was confirmed from Test Example 3 that LNDP inhibits the efferent the pelvic splanchnic nerve activity. Influence on the bladder, which is one of the internal organs dominated by these nerves, was therefore investigated.\nMale Wistar rats which are 13 weeks old were received, and quarantined and acclimated in a thermostat animal room at 18 to 28° C. in a cycle including a 12-hour light period and a 12-hour dark period for 1 week, and ten 14- to 16-week-old rats per group were tested. An aqueous 0.1 mg/mL LNDP solution or water was ingested from drinking for 7 days, and the urination amount was measured as weight with an electronic balance installed under a urine-collecting opening in raising with a metabolism cage. The weight data of the electronic balance every minute were automatically inputted into a computer. […] The total urination amount and the frequency of urination per day were found, and the urine amount per one time of urination (=the total urination amount per day/the frequency of urination per day) was calculated as to an individual of each group. […] As to the comparison of the test substance and ingestion days with respect to each measured value, two-way analysis of variance (two-way ANOVA) with replication was performed.", "note": "Ends that are not written are not given here.", "data": [{"sequence": "NIPPLTQTPVVVPPFLQPE [LNDP, Asn-Ile-Pro-Pro-Leu-Thr-Gln-Thr-Pro-Val-Val-Val-Pro-Pro-Phe-Leu-Gln-Pro-Glu]", "values": [{"measurement": "significant difference in change in body weight vs water ingestion group", "result": "not observed"}, {"measurement": "significant difference in general symptoms vs water ingestion group", "result": "not observed"}]}]}
